Laboratory results from US20240382483A1, “HETEROCYCLIC EGFR INHIBITORS FOR USE IN THE TREATMENT OF CANCER” (Blueprint Medicines Corporation, priority 2021, published 2024).
Counter-ions that a name gives are not always drawn.

What was measured:
[1] = target: T1, intracellular phosphorylation of EGFR in NCI-H1975 cell line that harbors the EGFR L858R T790M mutations (Homo sapiens, UniProt P00533, L858R/T790M); assay: NCI-H1975 pEGFR AlphaLISA assay; type: cell-based; settings: NCI-H1975 cells (EGFR L858R T790M), p-EGFR (Tyr1068), 4-5 hours incubation; read-out: Ext pEGFR H1975 GMean IC50 (nM) Protocol: @Pharmaron AlphaLISA (Num)
T1 construct: NCI-H1975 cell line that harbors the EGFR L858R T790M mutations (ATCC, CRL-5908); host or cells: NCI-H1975
T1 sequence (P00533 25-1210 T790M/L858R): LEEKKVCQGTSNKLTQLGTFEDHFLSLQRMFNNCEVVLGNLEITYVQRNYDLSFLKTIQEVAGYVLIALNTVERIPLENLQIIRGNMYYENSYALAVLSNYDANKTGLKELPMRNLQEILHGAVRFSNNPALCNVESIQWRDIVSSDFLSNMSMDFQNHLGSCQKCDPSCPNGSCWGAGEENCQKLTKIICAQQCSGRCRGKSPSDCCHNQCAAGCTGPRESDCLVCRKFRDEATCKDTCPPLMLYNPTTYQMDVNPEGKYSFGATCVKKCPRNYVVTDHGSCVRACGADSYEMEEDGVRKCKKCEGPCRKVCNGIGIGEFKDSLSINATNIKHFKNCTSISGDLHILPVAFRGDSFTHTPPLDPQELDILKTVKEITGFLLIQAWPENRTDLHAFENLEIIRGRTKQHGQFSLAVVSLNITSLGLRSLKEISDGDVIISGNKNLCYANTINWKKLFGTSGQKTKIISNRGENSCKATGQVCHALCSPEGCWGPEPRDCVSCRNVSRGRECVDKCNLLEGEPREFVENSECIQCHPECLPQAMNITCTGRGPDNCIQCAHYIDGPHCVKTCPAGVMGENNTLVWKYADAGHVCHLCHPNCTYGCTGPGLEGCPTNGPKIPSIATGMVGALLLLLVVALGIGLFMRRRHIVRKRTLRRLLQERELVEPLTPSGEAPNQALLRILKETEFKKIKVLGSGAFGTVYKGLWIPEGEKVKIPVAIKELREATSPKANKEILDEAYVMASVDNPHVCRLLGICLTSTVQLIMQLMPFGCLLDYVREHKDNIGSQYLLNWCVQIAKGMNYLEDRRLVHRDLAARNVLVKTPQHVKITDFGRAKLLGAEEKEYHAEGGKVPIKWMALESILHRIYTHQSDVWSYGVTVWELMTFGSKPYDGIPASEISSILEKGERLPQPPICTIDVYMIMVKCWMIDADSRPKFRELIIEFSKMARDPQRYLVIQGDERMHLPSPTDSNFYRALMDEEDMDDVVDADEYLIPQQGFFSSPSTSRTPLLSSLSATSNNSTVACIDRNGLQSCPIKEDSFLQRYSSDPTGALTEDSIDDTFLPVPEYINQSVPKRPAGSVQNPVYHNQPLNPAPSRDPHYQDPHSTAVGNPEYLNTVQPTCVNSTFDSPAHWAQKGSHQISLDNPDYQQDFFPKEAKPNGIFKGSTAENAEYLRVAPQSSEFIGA
Method: On the next day, the test compounds and DMSO control were added into H1975 cell plate followed by incubation at 37C/5% CO2 for 4-5 hours. […] Then 5 μL of a donor bead mix was added to each well followed by overnight incubation at room temperature in dark. On the next day, the plate was read at a compatible plate reader to obtain pEGFR signal. Percent of pEGFR inhibition was plotted against log concentration of compounds to generate IC50 values.

EGFR (L858R T790M C797S) = target: T2, EGFR (L858R T790M C797S) (Homo sapiens, UniProt P00533, C797S/L858R/T790M); assay: Biochemical EGFR inhibition assay (Caliper mobility shift), EGFR LRTMCS; settings: LRTMCS (PH) IC50 (nM) @ 1 mM ATP (Num), EGFR LRTMCS mutant
T2 construct: purchased SignalChem E10-122VG
T2 sequence (P00533 25-1210 T790M/C797S/L858R): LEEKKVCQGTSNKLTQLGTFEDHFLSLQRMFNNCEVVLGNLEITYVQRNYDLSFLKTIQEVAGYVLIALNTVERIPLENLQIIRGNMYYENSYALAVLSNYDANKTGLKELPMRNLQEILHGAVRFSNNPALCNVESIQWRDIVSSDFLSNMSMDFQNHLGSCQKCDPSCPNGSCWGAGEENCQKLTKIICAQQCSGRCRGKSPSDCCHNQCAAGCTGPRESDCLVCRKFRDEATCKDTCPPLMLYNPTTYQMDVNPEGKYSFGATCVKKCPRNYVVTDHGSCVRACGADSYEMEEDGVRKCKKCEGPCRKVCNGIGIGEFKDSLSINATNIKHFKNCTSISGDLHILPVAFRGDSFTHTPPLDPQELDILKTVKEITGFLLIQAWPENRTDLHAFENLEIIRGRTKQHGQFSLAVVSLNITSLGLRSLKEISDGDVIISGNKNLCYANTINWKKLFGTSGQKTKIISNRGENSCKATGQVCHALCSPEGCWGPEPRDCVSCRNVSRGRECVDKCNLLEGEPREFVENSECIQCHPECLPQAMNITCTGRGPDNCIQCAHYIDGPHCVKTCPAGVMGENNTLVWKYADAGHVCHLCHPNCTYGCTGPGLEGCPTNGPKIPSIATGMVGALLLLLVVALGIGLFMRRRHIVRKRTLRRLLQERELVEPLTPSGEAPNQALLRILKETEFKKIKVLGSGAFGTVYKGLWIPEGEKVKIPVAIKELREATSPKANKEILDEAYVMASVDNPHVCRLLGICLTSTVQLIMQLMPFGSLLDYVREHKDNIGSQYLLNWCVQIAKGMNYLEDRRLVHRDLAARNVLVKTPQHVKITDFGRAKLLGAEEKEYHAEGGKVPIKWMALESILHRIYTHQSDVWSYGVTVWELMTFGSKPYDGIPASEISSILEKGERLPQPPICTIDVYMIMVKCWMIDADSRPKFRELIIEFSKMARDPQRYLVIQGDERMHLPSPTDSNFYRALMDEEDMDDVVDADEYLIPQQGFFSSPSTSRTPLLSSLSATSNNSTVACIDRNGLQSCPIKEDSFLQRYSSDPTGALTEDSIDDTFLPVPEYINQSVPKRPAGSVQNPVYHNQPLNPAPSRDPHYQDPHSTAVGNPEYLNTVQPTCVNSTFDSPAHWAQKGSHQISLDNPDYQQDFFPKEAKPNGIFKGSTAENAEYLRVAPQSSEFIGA
Method: Reactions proceeded until between 10% to 20% total peptides were phosphorylated at room temperature (25° C.) and were terminated with 35 mM 2,2′,2″,2′″-(ethane-1,2-diyldinitrilo)tetraacetic acid (EDTA). Product was detected using the Caliper mobility shift detection method where the phosphorylated peptide (product) and substrate were electrophoretically separated and measured. Percent activity was plotted against log concentration of compound and points to generate an apparent IC50.

IC50 [1] [nM]	IC50 (EGFR (L858R T790M C797S)) [nM]	SMILES
20 to 30	< 15	CO[C@@H]1CCN(c2nccc(Nc3cc4c(C(C)C)cnc(N5CC(O)C5)c4cn3)n2)C[C@@H]1F [Example 147, 1-(6-((2-((3S,4R)-3-fluoro-4-methoxypiperidin-1-yl)pyrimidin-4-yl)amino)-4-isopropyl-2,7-naphthyridin-1-yl)azetidin-3-ol]
30 to 50	< 15	CC(C)c1cnc(N2CCC23CN(C)C3)c2cnc(Nc3ccnc(N4CC[C@@H](O)[C@@](C)(F)C4)n3)cc12 [Example 192, (3S,4R)-3-fluoro-1-(4-((5-isopropyl-8-(6-methyl-1,6-diazaspiro[3.3]heptan-1-yl)-2,7-naphthyridin-3-yl)amino)pyrimidin-2-yl)-3-methylpiperidin-4-ol trifluoroacetate]
30 to 50	< 15	CNC[C@@H]1CCN1c1ncc(C(C)C)c2cc(Nc3ccnc(N4CC[C@H](OC)[C@H](F)C4)n3)ncc12 [Example 164, N-(2-((3R,4S)-3-fluoro-4-methoxypiperidin-1-yl)pyrimidin-4-yl)-5-isopropyl-8-((S)-2-((methylamino)methyl)azetidin-1-yl)-2,7-naphthyridin-3-amine]
20 to 30	30 to 100	CC(C)c1ccc(N2C[C@H](n3ccnn3)[C@H]2C)c2cnc(Nc3ccnc(N4CCC(C)(O)CC4)n3)cc12 [Example 129, 1-(4-((5-isopropyl-8-((2R,3S)-2-methyl-3-(1H-1,2,3-triazol-1-yl)azetidin-1-yl)isoquinolin-3-yl)amino)pyrimidin-2-yl)-4-methylpiperidin-4-ol]
> 50	< 15	CC(C)c1cnc(N2CCC23CNC3)c2cnc(Nc3ccnc(N4CC[C@@]5(CCO5)C(F)(F)C4)n3)cc12 (single isomer, unassigned) [Example 191, (R)—N-(2-(5,5-difluoro-1-oxa-7-azaspiro[3.5]nonan-7-yl)pyrimidin-4-yl)-5-isopropyl-8-(1,6-diazaspiro[3.3]heptan-1-yl)-2,7-naphthyridin-3-amine or (S)—N-(2-(5,5-difluoro-1-oxa-7-azaspiro[3.5]nonan-7-yl)pyrimidin-4-yl)-5-isopropyl-8-(1,6-diazaspiro[3.3]heptan-1-yl)-2,7-naphthyridin-3-amine]
10 to 20	< 15	CO[C@@H]1CCN(c2cc(Nc3cc4c(C(C)C)ccc(N5CC(n6ccnn6)C5)c4cn3)ccn2)C[C@@H]1O (single isomer, unassigned) [Example 126, (3S,4R)-1-(4-((8-(3-(1H-1,2,3-triazol-1-yl)azetidin-1-yl)-5-isopropylisoquinolin-3-yl)amino)pyridin-2-yl)-4-methoxypiperidin-3-ol or (3R,4S)-1-(4-((8-(3-(1H-1,2,3-triazol-1-yl)azetidin-1-yl)-5-isopropylisoquinolin-3-yl)amino)pyridin-2-yl)-4-methoxypiperidin-3-ol]
20 to 30	15 to 20	CC(C)c1cnc(N2C[C@H](n3ccnn3)[C@H]2C)c2cnc(Nc3ccnc(N4CCC(C)(O)CC4)n3)cc12 [Example 130, 1-(4-((5-isopropyl-8-((2R,3S)-2-methyl-3-(1H-1,2,3-triazol-1-yl)azetidin-1-yl)-2,7-naphthyridin-3-yl)amino)pyrimidin-2-yl)-4-methylpiperidin-4-ol]
30 to 50	20 to 30	C[C@@H]1CCN1c1ncc([C@@H](C)OCC2COC2)c2cc(Nc3ccnc(N4CC[C@@H](O)[C@@](C)(F)C4)n3)ncc12 (single isomer, unassigned) [Example 184, (3S,4R)-3-fluoro-3-methyl-1-(4-((8-((R)-2-methylazetidin-1-yl)-5-((R)-1-(oxetan-3-ylmethoxy)ethyl)-2,7-naphthyridin-3-yl)amino)pyrimidin-2-yl)piperidin-4-ol or (3S,4R)-3-fluoro-3-methyl-1-(4-((8-((R)-2-methylazetidin-1-yl)-5-((S)-1-(oxetan-3-ylmethoxy)ethyl)-2,7-naphthyridin-3-yl)amino)pyrimidin-2-yl)piperidin-4-ol]

The next lines start with the molecule.

SMILES	IC50 [1] [nM]	IC50 (EGFR (L858R T790M C797S)) [nM]
CO[C@@H]1CCN(c2nccc(Nc3cc4c(C(C)C)cnc(N5CC(C(=O)N(C)C)C5)c4cn3)n2)C[C@@H]1O (single isomer, unassigned) [Example 120, 1-(6-((2-((3S,4R)-3-hydroxy-4-methoxypiperidin-1-yl)pyrimidin-4-yl)amino)-4-isopropyl-2,7-naphthyridin-1-yl)-N,N-dimethylazetidine-3-carboxamide or 1-(6-((2-((3R,4S)-3-hydroxy-4-methoxypiperidin-1-yl)pyrimidin-4-yl)amino)-4-isopropyl-2,7-naphthyridin-1-yl)-N,N-dimethylazetidine-3-carboxamide]	30 to 50	20 to 30
Cc1nc(-c2ncc(C(C)C)c3cc(Nc4ccnc(N5CC[C@@H](O)[C@@](C)(F)C5)n4)ncc23)n[nH]1 [Example 24, (3S,4R)-3-fluoro-1-(4-((5-isopropyl-8-(5-methyl-1H-1,2,4-triazol-3-yl)-2,7-naphthyridin-3-yl)amino)pyrimidin-2-yl)-3-methylpiperidin-4-ol]	30 to 50	< 15
CO[C@@H]1CCN(c2nccc(Nc3cc4c(C(C)C)cnc(N5CC(F)C5)c4cn3)n2)C[C@@H]1O (single isomer, unassigned) [Example 118, (3S,4R)-1-(4-((8-(3-fluoroazetidin-1-yl)-5-isopropyl-2,7-naphthyridin-3-yl)amino)pyrimidin-2-yl)-4-methoxypiperidin-3-ol or (3R,4S)-1-(4-((8-(3-fluoroazetidin-1-yl)-5-isopropyl-2,7-naphthyridin-3-yl)amino)pyrimidin-2-yl)-4-methoxypiperidin-3-ol]	> 50	20 to 30
CC(C)c1ncc(N2CC(F)C2)c2cnc(Nc3ccnc(N4CC[C@@H](O)[C@@](C)(F)C4)n3)cc12 [Example 49, (3S,4R)-3-fluoro-1-(4-((8-(3-fluoroazetidin-1-yl)-5-isopropyl-2,6-naphthyridin-3-yl)amino)pyrimidin-2-yl)-3-methylpiperidin-4-ol]	30 to 50	15 to 20
CC(C)c1cnc(N2C[C@@H](F)[C@H](F)C2)c2cnc(Nc3ccnc(N4CC[C@@H](O)[C@@](C)(F)C4)n3)cc12 (single isomer, unassigned) [Example 60, (3S,4R)-1-(4-((8-((3R,4R)-3,4-difluoropyrrolidin-1-yl)-5-isopropyl-2,7-naphthyridin-3-yl)amino)pyrimidin-2-yl)-3-fluoro-3-methylpiperidin-4-ol or (3S,4R)-1-(4-((8-((3S,4S)-3,4-difluoropyrrolidin-1-yl)-5-isopropyl-2,7-naphthyridin-3-yl)amino)pyrimidin-2-yl)-3-fluoro-3-methylpiperidin-4-ol]	10 to 20	< 15
CC(C)c1cnc(N2C[C@@H](F)[C@@H]2C)c2cnc(Nc3ccnc(N4CC[C@@H](O)[C@@](C)(F)C4)n3)cc12 (single isomer, unassigned) [Example 34, (3S,4R)-3-fluoro-1-(4-((8-((2S,3R)-3-fluoro-2-methylazetidin-1-yl)-5-isopropyl-2,7-naphthyridin-3-yl)amino)pyrimidin-2-yl)-3-methylpiperidin-4-ol or (3S,4R)-3-fluoro-1-(4-((8-((2R,3S)-3-fluoro-2-methylazetidin-1-yl)-5-isopropyl-2,7-naphthyridin-3-yl)amino)pyrimidin-2-yl)-3-methylpiperidin-4-ol]	> 50	< 15
CC(C)c1cnc(-c2nnc(C(C)(C)O)o2)c2cnc(Nc3ccnc(N4CC[C@@H](O)[C@@](C)(F)C4)n3)cc12 [Example 27, (3S,4R)-3-fluoro-1-(4-((8-(5-(2-hydroxypropan-2-yl)-1,3,4-oxadiazol-2-yl)-5-isopropyl-2,7-naphthyridin-3-yl)amino)pyrimidin-2-yl)-3-methylpiperidin-4-ol]	> 50	< 15
CC(C)c1ccc(N2CC3(CCS3(=O)=O)C2)c2cnc(Nc3ccnc(N4CC[C@@H](O)[C@@](C)(F)C4)n3)cc12 [Example 35, 6-(3-((2-((3S,4R)-3-fluoro-4-hydroxy-3-methylpiperidin-1-yl)pyrimidin-4-yl)amino)-5-isopropylisoquinolin-8-yl)-1-thia-6-azaspiro[3.3]heptane 1,1-dioxide]	< 10	< 15
CC(C)c1cnc(N2CCC2)c2cnc(Nc3ccnc(N4CC[C@@H](O)[C@@](C)(F)C4)n3)cc12 [Example 46, (3S,4R)-1-(4-((8-(azetidin-1-yl)-5-isopropyl-2,7-naphthyridin-3-yl)amino)pyrimidin-2-yl)-3-fluoro-3-methylpiperidin-4-ol]	20 to 30	< 15
